In PMC12677599 (Advanced Science, 2025):

Experiments:
Type in all cases: cell-based
[1] = system: H460 cells; test: LDH release assay; details: H460, 4 h dosing at each IC50 value; n = 3
Procedure: The seeding and starvation process were the same as cell antiproliferation evaluation. Cells were treated with 100 µL of compound solutions with different concentrations (compound 266 was tested at 12 µM) for 4 or 24 h. Cells treated with 0.5% DMSO in SFM and 1% Triton X‐100 in SFM served as blank control and positive control, respectively. Afterward, LDH working solution was prepared according to the instructions of the Cytotoxicity Detection Kit (LDH). Fifty µL of supernatant was transferred to another 96‐well plate, and 50 µL of LDH working solution was added to each well, followed by a 40 min incubation at room temperature. Subsequently, the absorbance of each well was measured by the plate reader at 490 nm.
The LDH release ratio was calculated as (3) LDHrelease%=ODSamplegroup−ODBlank/ODPositivegroup−ODBlank×100%

[2] = system: H460 cells; test: Killing rate evaluation, calcein-AM/PI double staining; details: IC50 concentration, n = 2
Procedure: Calcien‐AM/PI double staining assay was used. NCI‐H460 cells were seeded in a chamber‐slide (154526, Thermo Fisher Scientific) at a density of 100 000 cells per unit in a volume of 500 µL and cultured for 24 h. After starvation with 300 µL of SFM for 4 h, cells were treated with 500 µL of compound solutions with different concentrations for 2, 4, 6, 8, 10 h, respectively. Cells treated with 0.5% DMSO in SFM served as control group. Subsequently, cells in each unit were washed with EBSS once, and incubated with 500 µL of 2 µg mL^−1 calcien‐AM solution at 37 °C for 20 min. Afterward, cells were stained with 500 µL of 2 µg mL^−1 PI solution at room temperature for 15 min and washed with EBSS 3 times. Finally, 300 µL of EBSS was added into each unit. Live (green fluorescence from calcein‐AM) and dead (red fluorescence from PI) cells were then observed and imaged under a fluorescence microscope (LEICA Dmi8). This evaluation was conducted with two biological replicates. Quantitative analyses of living cells were processed with ImageJ software (threshold set: 8‐255).

[3] = system: HEK-293 normal cell line; test: cells; details: Homo sapiens, HEK293; Table S11; MTT; read-out: IC50 Value of chemotherapeutics, HEK-293
Method in brief: (§1)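 MTT assay. Tumor lines seeded at 8000 cells per well (24 h) and serum-starved 4–6 h; normal lines (MRC-5, HEK-293) seeded at 10 000 cells per well (48 h). Compounds for 24 h in SFM, then MTT for 2 h (tumor) or 4 h (normal), absorbance at 570 nm; viability normalized to blank and 0.5% DMSO growth control.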

[4] = system: H460 cell line; test: cells; details: Homo sapiens, NCI-H460; Table S11; MTT; read-out: IC50 Value of chemotherapeutics, H460
Method in brief: as §1

IC50 [4]: 169 ± 29.2 µM
SMILES: COc1cc([C@@H]2c3cc4c(cc3[C@@H](O[C@@H]3O[C@@H]5CO[C@@H](C)O[C@H]5[C@H](O)[C@H]3O)[C@H]3COC(=O)[C@H]23)OCO4)cc(OC)c1O [Etoposide, etoposide, reference compound]
LDH release ratio [1]: no positive results | cells eliminated within 10 h [2]: ≈ 10% | IC50 [3]: 115 ± 14.7 µM
